Experimental data taken from paper PMC5041153, “Presumed LRP1-targeting transport peptide delivers β-secretase inhibitor to neurons in vitro with limited efficiency” (Scientific Reports, 2016).
Where a SMILES comes first, the peptide text is derived from it. [ ]: non-standard residue; d: D form. Sta = CC(C)C[C@H](N)[C@@H](O)CC(=O)O

Key:
[1] = target: T1, BACE1 (Homo sapiens, UniProt P56817); assay: Activity test on human neurons: Aβ38, Aβ40, Aβ42 in supernatant by ELISA; assay type: cell-based; conditions: 6 h, swAPP SH-SY5Y cells
T1 construct: SH-SY5Y cells overexpressing either Swedish-mutant APP or the isoforms APP695 or APP751 were seeded in 24-well plates; endogenous in cells; host or cells: SH-SY5Y cells overexpressing Swedish-mutant APP (also APP695 or APP751 lines)
Method: Figure 5 BACE1-inhibitory activity of the bioconjugates. […] The content of Aβ peptides was measured in the cells’ supernatant upon treatment and normalized setting the values of control DMSO-treated cells as 100% (Mean ± SD, n = 3–6). […] GAPDH was used as loading control. (b) Inhibitory activity of the ANG-SI bioconjugate at a range of concentrations (5–100 μM) after 6 h incubation with swAPP cells (Mean ± SD, n = 3–6). *P ≤ 0.05, **P ≤ 0.01, ***P ≤ 0.001, ****P ≤ 0.0001, one-way ANOVA followed by Dunnet test.
Supernatant from the tissue culture plates was then collected in low protein-binding tubes and analyzed by enzyme-linked immunosorbent assay with the Multi-Spot Assay System from Meso Scale Discovery (Rockville, MD) detecting human Aβ38, Aβ40 and Aβ42 peptides (#K15200E,) following manual’s instructions. The values obtained for the different conjugates varied in intensity (Aβ42 ~70,000 RU, Aβ40 ~400,000 RU and Aβ38 ~4,000 RU) and were normalized for the basal Aβ level detected in the supernatant of DMSO-treated cells, which was set as 100%.

[2] = system: wild type SH-SY5Y cells; assay type: cell-based, human; conditions: 5 μM, continuous exposure over 72 h, RTCA xCELLigence
Method: Figure S7 – Activity of the TAT-SI and TRP-SI bioconjugates on swAPP-overexpressing SH-SY5Y cells. […]
μM in FBS-supplemented medium. Mean ± SD (n=3). **P<0.01 and ****P<0.0001, one-way ANOVA followed […]
Figure S8 – Cytotoxicity of the peptides. Cell growth was monitored over 72 h using wild type SH-SY5Y cells during continuous exposure to the peptides at 5 μM using a Real-Time Cell Analysis (RTCA) xCELLigence system from Roche (Rotkreuz, Switzerland). Briefly, cells were seeded on the E-plates (10,000 cells/well) and after one day the medium was replaced by fresh medium containing the corresponding peptide and the cells were grown for 72 h. Cell growth was monitored with the RTCA system over 72 h during continuous exposure to the peptides at 5 μM. […]

[3] = target: T2, purified BACE1 enzyme (Homo sapiens, UniProt P56817); assay: Activity test against purified BACE1 enzyme (cell-free, SensoLyte 520 β-secretase assay kit); assay type: biochemical; conditions: cell-free assay of purified BACE1; mean of n = 3, except ANG-PEG-SI n = 2; CI 95% printed alongside; read-out: IC50 (concentration at which 50% of relative cleavage was achieved)
T2 construct: purchased AnaSpec (Fremont, CA)
Method: Figure 1 Peptidic bioconjugates and their activity on purified BACE1 enzyme. (a) Scheme of the main bioconjugates used in this study with their corresponding sequences.
A range of concentrations of the different bioconjugates were tested in a cell-free assay of purified BACE1 enzyme using the SensoLyte 520 β–secretase assay kit from AnaSpec (Fremont, CA) following manufacturer’s guidelines.

[4] = system: SH-SY5Y cells; assay: Cellular internalization of TAMRA-labeled peptides by flow cytometry; assay type: cell-based, human; conditions: FBS-supplemented medium, n = 3
Method: Figure 2 Cellular internalization of peptidic bioconjugates in SH-SY5Y neurons. Mean cell fluorescence intensity was measured by flow cytometry after continuous incubation with the fluorescent TAMRA-labeled bioconjugates in FBS-supplemented medium for increasing time periods. Values were normalized against the fluorescence background of untreated cells and expressed as fold increase. (a) Internalization kinetics of ANG-SI, ANG or SI at 1 μM (mean ± SD, n = 3). (b) Energy-dependence of the internalization of ANG-SI at 37 °C and 4 °C (mean ± SD, n = 3). ***P ≤ 0.001 and ****P ≤ 0.0001, unpaired Student’s t test. (c) Confocal images of cells incubated with ANG-SI, ANG or SI (red) for 1 h. Cells’ perimeter and nuclei have been delineated for reference. Scale bar 10 μm. […]
To study the uptake of the ANG conjugates, cells were incubated with the different fluorescently labeled peptides at 1 μM in FBS-supplemented medium for increasing periods of time, after which they were washed according to previously established protocols[50] and harvested with trypsin for their analysis by flow cytometry. The mean fluorescence values obtained from the analysis were normalized against the background fluorescence of untreated cells and were presented as fold-increase of this intensity. […]

[5] = system: SH-SY5Y wild-type cells; conditions: 30 min pre-treatment, 1 h incubation, flow cytometry, n = 3; for decrease of uptake on treatment with EIPA: 60 μM EIPA, 3 μM peptide or 0.75 mg/mL 70 kDa dextran; for decrease of uptake in the presence of Dynasore: 100 μM Dynasore, serum-free medium, 3 μM peptide or 5 μg/mL transferrin
Method: Cell fluorescence distributions of cells treated with (a) 100 μM Dynasore or (b) 60 μM EIPA. […] Background cell fluorescence of only inhibitor-treated cells is shown (grey). Distributions shown are representative examples of three independent experiments. (c,d) Mean cell fluorescence intensity of the distributions shown in (a) or (b), respectively. The markers transferrin (Trf) and Dextran are shown for reference. (e) Frequency of cells in each of the two subpopulations (Negative or Positive) present upon treatment with ANG, as defined by the gates shown in the fluorescence distribution in (b). Numerical data are represented as mean ± SD (n = 3). *P ≤ 0.05 and **P ≤ 0.01, one-way ANOVA followed by Dunnet test.
For the pharmacological inhibition of endocytosis, we used Dynasore to inhibit clathrin-mediated endocytosis and 5-(N-Ethyl-N-isopropyl)amiloride (EIPA) to block macropinocytosis. […] To verify their inhibitory effects, we used fluorescently labeled human transferrin and 70 kDa dextran, respectively. […] Dynasore-treated cells were washed thrice with acidic wash buffer (0.2 M acetic acid and 0.2 M NaCl) and once with PBS prior to being harvested with trypsin for their analysis by flow cytometry. EIPA-treated cells were washed once with PBS, twice with acetate wash buffer (0.1 M sodium acetate and 0.05 M NaCl, pH 5.5) for 5 min each, and finally once more with PBS prior to being harvested with trypsin for their analysis by flow cytometry.

T1 sequence (P56817 46-501): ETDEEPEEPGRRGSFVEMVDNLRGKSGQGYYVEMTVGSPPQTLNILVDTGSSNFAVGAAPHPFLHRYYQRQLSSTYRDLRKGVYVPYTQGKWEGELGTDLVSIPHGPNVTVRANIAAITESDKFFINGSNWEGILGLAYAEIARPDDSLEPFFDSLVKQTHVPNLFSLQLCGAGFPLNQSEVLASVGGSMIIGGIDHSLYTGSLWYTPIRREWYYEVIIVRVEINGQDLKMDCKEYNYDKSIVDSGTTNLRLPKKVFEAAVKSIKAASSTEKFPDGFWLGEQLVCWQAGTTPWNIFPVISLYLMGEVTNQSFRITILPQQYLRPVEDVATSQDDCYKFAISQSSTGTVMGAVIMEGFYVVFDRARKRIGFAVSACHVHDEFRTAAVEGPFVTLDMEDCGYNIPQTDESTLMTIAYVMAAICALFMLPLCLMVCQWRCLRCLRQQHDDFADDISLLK
T2 sequence (P56817 46-501): as above

C[C@@]1(c2cc(-c3cncnc3)c(F)cc2F)CCSC(N)=N1 [LY2811376, reference compound]
decrease of the levels of Aβ peptides 38, 40 and 42 in supernatant ([1]; 5 μM, FBS-supplemented medium, normalized to DMSO-treated cells = 100%, n = 3–6): > 90%

CC[C@H](C)[C@H](NC(=O)[C@H](CCCCN)NC(=O)[C@H](CCCCN)NC(=O)[C@H](C)NC(=O)[C@H](CC(C)C)NC(=O)[C@H](C)NC(=O)[C@H](C)NC(=O)[C@H](CC(C)C)NC(=O)[C@H](C)NC(=O)[C@H](CCCCN)NC(=O)[C@H](CC(C)C)NC(=O)[C@H](CC(N)=O)NC(=O)[C@@H](NC(=O)[C@H](CCCCN)NC(=O)CNC(=O)[C@H](CC(C)C)NC(=O)[C@H](CC(C)C)NC(=O)[C@H](Cc1ccc(O)cc1)NC(=O)CNC(=O)[C@H](C)NC(=O)[C@H](CO)NC(=O)[C@H](CC(N)=O)NC(=O)[C@H](CC(C)C)NC(=O)[C@@H](NC(=O)[C@H](Cc1c[nH]c2ccccc12)NC(=O)CNC(=O)[C@H](Cc1ccccc1)NC(=O)[C@H](CCC(=O)O)NC(=O)[C@H](C)NC(=O)[C@@H](NC(=O)C[C@H](O)[C@H](CC(C)C)NC(=O)[C@H](CC(N)=O)NC(=O)[C@@H](NC(=O)[C@@H](N)CCC(=O)O)C(C)C)C(C)C)[C@@H](C)O)[C@@H](C)CC)C(=O)N[C@@H](CC(C)C)C(=O)O [TRP-SI] (H-EVN[Sta]VAEFGWTLNSAGYLLGKINLKALAALAKKIL-OH)
cytotoxicity (cell growth) [2]: cytotoxic effect

EVN-statine-VAEF-PEG-TFFYGGSRGKRNNFKTEEY [ANG-PEG-SI, ANG and SI joined by an inert poly(ethylene glycol) linker]
IC50 [3]: 87.1 nM
effect on Aβ peptide levels (cellular activity) ([1]; 5 μM, FBS-supplemented medium, normalized to DMSO-treated cells): did not show cellular activity

EVN-statine-VAEFTFFYGGSRGKRNNFKTEEY (N-terminal EVN-statine) [ANG-SI]
internalization into cells (mean cell fluorescence intensity) ([4]; TAMRA-labeled peptide, 1 μM, up to 5 h continuous incubation, 37 °C): taken up by cells
internalization at 4 °C instead of 37 °C (energy dependence) ([4]; TAMRA-labeled, 1 h pre-incubation at 4 °C): significantly decreased
decrease in the enzymatic activity of BACE1 ([1]; concentrations five times higher than 5 μM, n = 3–6): ~ 25%
decrease in the enzymatic activity of BACE1 ([1]; concentrations twenty times higher than 5 μM, n = 3–6): ~ 60%
decrease of uptake on treatment with EIPA [5]: 50%
decrease of uptake in the presence of Dynasore [5]: 20%

dextran [reference compound]
decrease of uptake on treatment with EIPA [5]: 50%

transferrin: fluorescently labeled human transferrin, clathrin-mediated endocytosis marker [reference compound]
decrease of uptake in the presence of Dynasore [5]: ~ 35%
